Source: patent US20030113330A1, “Methods for treating pulmonary fibrosis” (priority 1999, published 2003)
Where no end group is shown, it is not given here. The star is where a group is joined. CH2Cl = ClC*; CH2F = FC*

How the values were obtained:
[1] = test system: primary alveolar epithelial cells (AEC); test: Bleomycin-induced apoptosis of primary AEC in vitro
Protocol: (§1) Lung Cell Isolation and Detection of Apoptosis In Vitro. Primary alveolar epithelial cells (AEC) were isolated from adult male Wistar rats as described above. The primary cells were studied at day two of culture, a time at which they are type II cell-like by accepted morphologic and biochemical criteria, see Paine et al., Am. J. Physiol. […] All cells were seeded in 24-well or 6-well chambers, and all experiments were conducted at subconfluent densities of 80-90% in serum-free Ham's F12 medium. Test reagents were diluted with Ham's F12 medium and were applied for 20 hours at 37° C. in a 5% CO2 incubator.
(§2) Detection of apoptotic cells with propidium iodide (PI) was conducted as described above, following digestion of ethanol-fixed cells with DNAse-free RNAse in PBS containing 5 ug/ml PI.
Apoptosis was detected as described above.

primary rat AEC [2] = test: Angiotensin II-induced apoptosis in primary rat AEC (nuclear fragmentation, PI); type: cell-based; conditions: ANGII 5.0 uM; saralasin 50 ug/ml, lisinopril 500 ng/ml
Description: Cell Culture. The human lung adenocarcinoma cell line A549 was obtained from American Type Culture Collection and cultured in Ham's F12 medium supplemented with 10% fetal bovine serum (FBS). Primary alveolar epithelial cells were isolated from adult male Wistar rats as described in Uhal et al., Am. J. Physiol. Suppl. (Oct.) 261:110-117 (1991) and Uhal et al., Am. J. Physiol. 269:L819-L828 (1995). The primary cells were studied at day two of culture, a time at which they are type II cell-like by accepted morphologic and biochemical criteria, see Uhal, Am. J. Physiol. 272:L1031-L1045 (1997). […] J. Physiol. Suppl. (October) 261:110-117 (1991). All cells were seeded in 24-well or 6-well chambers, and all experiments were conducted at subconfluent densities of 80-90% in serum-free Ham's F12 medium. Test reagents were diluted with Ham's F12 medium and were applied for 20 h at 37° C. in a 5% CO2 incubator.
Detection of Apoptosis. Detection of apoptotic cells with propidium iodide (PI) was conducted as described in Uhal, et al., Am. J. Physiol. 275:L1013-1017 (1998) following digestion of ethanol-fixed cells with DNAse-free RNAse in PBS containing 5 ug/ml PI. Assay of Annexin V binding by flow cytometry was performed essentially as described for human lung fibroblasts in Uhal, et al., Am. J. Physiol. 275:L998-L1005 (1998) after trypsinization of cells from culture vessels. Assay of Caspase-3 activity was performed on viable suspension cultures as reported in Uhal, et al., Am. J. Physiol. 275:L1013-1017 (1998). In all assays, detached cells were retained by centrifugation of the culture vessels during fixation with 70% ethanol, or by retention of culture media and recovery by centrifugation before assay.
For microscopy, cells were cultured on glass cover slips, incubated with test reagents and fixed with 70% ethanol. The fixed cells were immunolabeled overnight at 4° C. with monoclonal antibodies to cytokeratins 7 and 19 (Chemicon International, Temecula, Calif.), and then for one hour at 37° C. with anti-mouse IgG-rhodamine and DNAse-free RNAse (Boehringer Mannheim, Indianapolis, Ind.) The cover slips were then rinsed in distilled water three times and mounted under Fluoromount Solution (Southern Biotechnology Associates, Birmingham, Ala.) containing 5 ug/ml propidium iodide. Photomicroscopy was performed as described in Uhal, et al., Am. J. Physiol. 275:L1013-1017 (1998).
Apoptosis in alveolar epithelial cells was quantitated by fluorescence detection of chromatin condensation and nuclear fragmentation in alcohol-fixed cells stained with propidium iodide. See Uhal, et al., Am. J. Physiol. 275:L1013-1017 (1998). […] After 20 h, the culture vessel was centrifuged to retain detached cells and labeled with anticytokeratin antibodies and propidium iodide. […] Double labeling with PI and monoclonal antibodies to cytokeratins 7 and 19 identified cells with both apoptotic nuclear morphology and positive anticytokeratin immunoreactivity.

primary rat AEC [3] = conditions: for inhibition of amiodarone-induced apoptosis: captopril 500 ng/ml, saralasin 50 ug/ml, Losartan 5 pg/ml, amiodarone 2.5 ug/ml for chelerythrine, orthovanadate
Protocol: (§3) The human lung adenocarcinoma cell line A549 (ATCC) was cultured in Ham's F12 medium supplemented with 10% fetal bovine serum (FBS). Primary alveolar epithelial cells were isolated from adult male Wistar rats. The primary cells were studied at day two of culture, a time at which they are type II cell-like by accepted morphologic and biochemical criteria. […] All cells were seeded in 24-well or 6-well chambers, and all experiments were conducted at subconfluent densities of 80-90% in serum-free Ham's F12 medium. Test reagents were diluted with Ham's F12 medium and were applied for 20 hours at 37C. in a 5% CO2 incubator.
(§4) Apoptotic cells were detected using propidium iodide (PI) following digestion of ethanol-fixed cells with DNAse-free RNAse in PBS containing 5 ug/ml PI. […] In replicate culture vessels, necrosis was detected as the loss of exclusion of PI after application of the vital dye directly to the cell culture medium at 5 ug/ml final concentration. Red fluorescent (PI-POSITIVE) cells (>570 nm) were scored over the subsequent hour as a percentage of the total cells in any given field. A minimum of 4 separate fields were scored in each of three separate culture vessels per experiment condition; all experiments were performed at least twice and the data were compiled. Although all necrotic cells are PI-positive, some apoptotic cells may also take up the dye but these comprise a minor fraction of the total dead cell population.
(§5) In all assays, detached cells were retained by centrifugation of the culture vessel at 300×g for 10 minutes with a centrifuge rotor designed for culture plates. For detection of necrosis (dye exclusion of PI), the PI was added directly to the cell culture medium immediately before centrifugation of the culture vessel. For detection of apoptosis, ethanol was added directly to the cell culture medium to a final concentration of 70% immediately before the centrifugation. Afterward, the ethanol was carefully removed and the total cell population (attached plus sedimented detached cells) were stained with PI as described above.

human A549 cells = type: cell-based; conditions: human, 20 h
Protocol: (§6) The human lung adenocarcinoma cell line A549 (ATCC) was cultured in Ham's F12 medium supplemented with 10% fetal bovine serum (FBS). Primary alveolar epithelial cells were isolated from adult male Wistar rats. The primary cells were studied at day two of culture, a time at which they are type II cell-like by accepted morphologic and biochemical criteria. All primary cell preparations were of better than 90% purity assessed by acridine orange staining. All cells were seeded in 24-well or 6-well chambers, and all experiments were conducted at subconfluent densities of 80-90% in serum-free Ham's F12 medium. Test reagents were diluted with Ham's F12 medium and were applied for 20 hours at 37C. in a 5% CO2 incubator.
Apoptotic cells were detected using propidium iodide (PI) following digestion of ethanol-fixed cells with DNAse-free RNAse in PBS containing 5 ug/ml PI. […] In replicate culture vessels, necrosis was detected as the loss of exclusion of PI after application of the vital dye directly to the cell culture medium at 5 ug/ml final concentration. Red fluorescent (PI-POSITIVE) cells (>570 nm) were scored over the subsequent hour as a percentage of the total cells in any given field. A minimum of 4 separate fields were scored in each of three separate culture vessels per experiment condition; all experiments were performed at least twice and the data were compiled. […]

[4] = test system: primary cultures of rat AEC; type: cell-based; conditions: male, Wistar, rat, 20 h
Protocol: as §6

A549 cells [5] = conditions: human, 20 h
Protocol: as §3, §4, §5

A549 cells [6] = test: Amiodarone-induced net cell loss in A549 cultures; type: cell-based, human; conditions: 20 hours exposure
Protocol: (§7) Primary alveolar epithelial cells were isolated from adult male Wistar rats. The primary cells were studied at day two of culture, a time at which they are type II cell-like by accepted morphologic and biochemical criteria. All primary cell preparations were of better than 90% purity assessed by acridine orange staining. All cells were seeded in 24-well or 6-well chambers, and all experiments were conducted at subconfluent densities of 80-90% in serum-free Ham's F12 medium. Test reagents were diluted with Ham's F12 medium and were applied for 20 hours at 37C. in a 5% CO2 incubator.
(§8) Importantly, unattached cells were recovered and included in the analyses, and thus the data represent true loss of cells rather than simple detachment from the substratum.

primary rat AEC [7] = test: Amiodarone-induced net cell loss in primary rat AEC cultures; type: cell-based; conditions: 20 hours exposure
Protocol: as §7, §8

primary rat AEC [8] = test: Fas ligand-induced apoptosis of primary rat alveolar epithelial cells; type: cell-based; conditions: captopril, lisinopril 500 ng/ml; caspase inhibitors 60 uM
Protocol: as §1, §2
Expression of FAS by alveolar epithelial cells is observed during bleomycin-induced fibrogenesis in mice. See Hagimoto, et al., Am. J. Respir. Cell Mol. Biol. 16:91-101 (1997). […] Apoptosis was detected by quantitation of fragmented nuclei (see above).
Cell Culture and Detection of Apoptosis. The human lung adenocarcinoma cell line A549 was obtained from American Type Culture Collection and cultured in Ham's F12 medium supplemented with 10% fetal bovine serum (FBS). Primary alveolar epithelial cells were isolated from adult male Wistar rats as described earlier (Uhal, B. D., I. Joshi, A. True, S. Mundle, A. Raza, A. Pardo and M. Selman. Fibroblasts isolated after fibrotic lung injury induce apoptosis of alveolar epithelial cells in vitro. Am. J. Physiol. 269:L819-L828, 1995); Wang, R., A. Zagariya, 0. Ibarra-Sunga, C. […] Am. J. Physiol. 276:L885-L889 (1999)). […] All cells were seeded in 24-well or 6-well chambers, and all experiments were conducted at subconfluent densities of 80-90% in serum-free Ham's F12 medium. Test reagents were diluted with serum-free Ham's F12 medium and were applied under serum-free conditions for 20 hours at 37C. in a 5% CO2 incubator. Detection of apoptotic cells with propidium iodide (PI) was conducted as described above Am. J. Physiol. 275:L1013-1017 (1998); Uhal et al., following digestion of ethanol-fixed cells with DNAse-free RNAse in PBS containing 5 μg/ml PI. In all assays, detached cells were retained by centrifugation of the culture vessels during fixation with 70% ethanol, or by retention of culture media and recovery by centrifugation before assay.
Apoptosis was detected by nuclear fragmentation as described above.

[9] = test system: primary rat alveolar epithelial cells; test: Apoptosis of rat AEC induced by human lung fibroblast-conditioned media; type: cell-based; conditions: saralasin 50 ug/ml, DEVD-fmk 60 uM, anti-ANGII IgG 1 ug/ml
Description: Fibroblast Isolation, Culture and Preparation of Conditioned Media. Primary human lung fibroblasts were isolated at the National Institute of Respiratory Diseases, Mexico. […] Of these, “fibrotic” lung fibroblast strains (HIPF-X, where X=patient number) were derived from patients suffering from either of two different types of interstitial lung disease (ILD): Idiopathic Pulmonary Fibrosis (IPF) and Chronic Hypersensitivity Pneumonitis (CHP). In both diseases, patients had clinical, functional and radiologic features which fulfill the diagnostic criteria for an ILD. […] Briefly, all patients had progressive dyspnea, bilateral reticulonodular images on chest roentgenogram, restrictive lung functional impairment with decreased lung volumes and compliance, and hypoxemia at rest that worsened with exercise. […] Patients with IPF had neither antecedents of any occupational or environmental exposure nor other known cause of ILD. […] Biopsies lacked granulomas, vasculitis, microorganisms, and inorganic material by polarized light microscopy.
Control fibroblasts were obtained from individuals having undergone a lobectomy for removal of a primary lung tumor. […] Lung fibroblasts from normal or fibrotic tissue were isolated by trypsin dispersion, and fibroblast strains were established in Dulbecco's modified Eagle's medium (or in Ham's F-12 medium) supplemented with 10% fetal calf serum, 200 U/ml penicillin, and 200 mg/ml streptomycin. […]
Epithelial Cell Culture and Detection of Apoptosis. […] All epithelial cell preparations were greater than 90% pure as determined by acridine orange uptake into lamellar bodies. […] Epithelial cell apoptosis was detected by the assessment, under fluorescence microscopy, of chromatin condensation and nuclear fragmentation within cytokeratin-positive cells after ethanol fixation and staining with propidium iodide. […]
The percentage increase in rat AEC apoptosis was determined by propidium iodide assay of primary alveolar epithelial cells exposed to serum-free conditioned media, see Uhal et al., Am.

adult male Wistar rats = conditions: 8 U/kg intratracheal, 14 days
Protocol: Adult male Wistar rats were given intratracheal instillations of 8 U/kg bleomycin sulfate (BLEO) or sterile saline. […] Lung fibrosis was assessed by picrosirius red (PR) quantitation of lung collagen and by hydroxyproline (HP) assay at 14 days after BLEO administration. At the same time point, fragmented DNA in lung epithelial cells was detected by in situ end labeling (ISEL).
Animals and Induction of Pulmonary Fibrosis. Forty adult male Wistar rats, 175-200 grams, were divided into four groups; three groups received a single intratracheal instillation of 8 units per kilogram of bleomycin sulfate (BLEO) in sterile saline. Two days before the administration of BLEO, one group received captopril in the drinking water at a concentration of 500 mg/liter. […] Control animals (NORM) received administrations of the vehicles only.
Immediately before sacrifice, animals were given intraperitoneal injections of sodium pentobarbital and the trachea was cannulated. The middle right lobe was ligated at the hilus, was excised distal to the ligation and was immediately frozen in liquid N2 for hydroxyproline assay of total collagen (see below). The remaining lung tissues were carefully removed and were instilled with 4% paraformaldehyde in PBS at 20 cm H2O constant pressure, then immersed in the same fixative for two hours. The fixed tissues were washed with PBS three times for 15 minutes and were then embedded in paraffin. Five-micron sections of lung were deparaffinized by passing through xylene, xylene:alcohol 1:1, 100% alcohol and 70% alcohol for 10 minutes each. Ethanol was removing by rinsing with distilled water.
In situ end-labeling (ISEL) of fragmented DNA. ISEL was conducted by a modification of the method of Mundle et al., Cell Death and Differentiation, 1: 117-122 (1994). Briefly, ethanol was removed from deparaffinized lung sections by rinsing in distilled water for at least 10 minutes. The slides were then placed in 3% hydrogen peroxide (Sigma Chemical, St. Louis, Mo.) for 30 minutes at 20° C., rinsed with PBS, and incubated with Proteinase K (Sigma Chemical, St. Louis, Mo.) in saline sodium citrate solution (SSC) (0.3 M NaCi and 30 mM sodium citrate in water, pH 7.0) for 15 minutes at 37° C. Samples were rinsed once in water, three times in 0.15 M PBS for 4 minutes each, and then incubated in SSC at 80° C. for 20 minutes. After four rinses in PBS and four rinses in Buffer A (50 mM Tris/HCl, 5 mM MgCl, 10 mM β-mercaptoethanol and 0.005% BSA in water, pH 7.5), the sections were incubated at 18° C. for two hours with ISEL solution (0.001 mM digoxigenin-dUTP, 20 U/ml DNA Polymerase 1 and 0.01 mM each of dATP, dCTP and dGTP in Buffer A). The sections were then rinsed thoroughly five times with Buffer A and three times with PBS. Detection of incorporated dUTP was achieved by incubation for two hours at 37° C. with AP-conjugated anti-digoxigenin (Boerhinger Mannheim, Indianapolis, Ind.) at a 1:400 dilution. Bound AP-antibody complexes were detected with the Fast Blue chromogen system and the sections were mounted with Fluoromount Solution (Southern Biotechnology, Birmingham, Ala.).
Identification of Collagen. Collagens were localized through staining of lung sections by the picrosirius red technique, see Pick et al., Am. J. Pathol. 134:365-371 (1989), which has absolute specificity for collagen. Briefly, sections deparaffinized with xylenes were rehydrated through a descending series of ethanols to distilled water. The hydrated sections were immersed in 0.2% aqueous phosphomolybdic acid for 2 minutes, rinsed in distilled water and then stained for 110 minutes with 0.1% Sirius Red F3BA (Pfal and Bauer, Stamford, Conn.) in saturated aqueous picric acid, pH 2.0. The sections were washed for 2 minutes in 0.01 N HCl, rinsed for 45 seconds in 70% ethanol, dehydrated in three changes of absolute alcohol, cleared in xylene and mounted in a nonaqueous mounting medium.

Question: For `O=C(O)C1=CC(=C(c2ccc(O)c(C(=O)O)c2)c2ccc(O)c(C(=O)O)c2)C=CC1=O` [aurintricarboxylic acid], which inhibition at 10 µM ([1]; Rattus norvegicus, Epithelial cell, read-out: inhibition of bleomycin-induced apoptosis of AEC in vitro) is on record?
Answer: 59%

Question: Which “inhibition of ANGII-induced apoptosis of primary rat AEC” value (primary rat AEC [2]) does the source give for `COc1ccc2c(c[n+](C)c3c4cc5c(cc4ccc23)OCO5)c1OC` [chelerythrine] here?
Answer: significantly inhibited

Question: And the “inhibition of amiodarone-induced apoptosis” value (primary rat AEC [3])?
Answer: significantly inhibited

Question: What does the source list for `CCCCc1oc2ccccc2c1C(=O)c1cc(I)c(OCCNCC)c(I)c1` [desethylamiodarone]?
Answer: concentration at which necrosis / significant cell death begins (human A549 cells): 5000 ng/mL; concentration at which significant cell death / toxicity begins [4]: 100 ng/mL; cytotoxicity at the higher doses [4]: ~100%; concentration at which apoptosis begins (A549 cells [5]): 5000 ng/mL; concentration at which significant apoptosis begins (primary rat AEC [3]; male, Wistar, rat, 20 h): 2500 ng/mL; effect on total cell number (A549 cells [6]): significantly decreased; effect on total cell number (primary rat AEC [7]): significantly decreased

Question: `[Na+].[Na+].[Na+].[O]=[V]([O-])([O-])[O-]` [sodium orthovanadate] was tested. Which “inhibition of amiodarone-induced apoptosis” value (primary rat AEC [3]) did it give?
Answer: not

Question: For “Asp-Glu-Val-Asp-[O-Me]-CH2F (DEVD(OMe)-CH2F; not fully specified; printed as Asp-Glu-Val-Asp-[O-Me]-CH2F) [DEVD-fmk]”, which “inhibition of Fas ligand-induced apoptosis of primary rat AEC (words)” value (primary rat AEC [8]) is on record?
Answer: comparable efficacy to inhibit apoptosis

Question: What about the “inhibition of apoptosis induced by HIPF-conditioned media” value [9] of the same molecule?
Answer: completely abrogated

Question: For “Tyr-Val-Ala-Asp-[O-Me]-CH2Cl (YVAD(OMe)-CH2Cl; not fully specified; printed as Tyr-Val-Ala-Asp-[O-Me]-CH2Cl) [YVAD-cmk]”, which “inhibition of Fas ligand-induced apoptosis of primary rat AEC (words)” value (primary rat AEC [8]) is on record?
Answer: comparable efficacy to inhibit apoptosis

Question: Which results are given for bleomycin sulfate?
Answer: increase in alveolar septal collagen (picrosirius red) (adult male Wistar rats): 100%; increase in peribronchial collagen (picrosirius red) (adult male Wistar rats): 133%; concentration at which induction of apoptosis was statistically significant ([1]; 20 h): 5 µM
